Measurements reported in publication PMC5754413, “Mass balance, metabolic disposition, and pharmacokinetics of a single oral dose of regorafenib in healthy human subjects” (Cancer Chemotherapy and Pharmacology, 2017).
Where “and” joins values, the source holds several entries; their conditions need not be identical. Identical values can stand only once.

Columns and labels:
[1] = Metabolite profiling in plasma by HPLC–LSC; assay type: in vivo, human; conditions: for Percent of total AUC(0–144) of radioactivity in plasma: based on HPLC–LSC, mean; for Occurrence in plasma: radiochromatography of plasma
Experimental: Blood and plasma: Blood samples (18.7 mL per each time point) were collected into nonbeaded lithium-heparinized tubes immediately pre-dose and at the following post-dose times: 0.5, 1, 1.5, 2, 2.5, 3, 4, 6, 9, 12, 16, 20, 24, 36, 48, 72, 96, 120, 144, 192, 240, and 288 h. For each sample, 1 mL of whole blood was stored at 4 °C for subsequent LSC and the remainder was processed for plasma. Individual 150 μL plasma samples for each time point were treated with formic acid (20 μL) and acetonitrile (450 μL). The samples were homogenized using a MS2 Minishaker® (IKA® Labortechnik, Staufen im Breisgau, Germany). The precipitated proteins were removed by centrifugation (5 min, 13,000 rpm, Biofuge). After concentrating the supernatant to about 80 μL, methanol (15 μL) was added. The individual samples were analyzed by HPLC with off-line radioactivity detection for metabolite profiling.
Pharmacokinetic outcome measures were generated by non-compartmental analysis of plasma concentration–time data using WinNonlin v4.1 (Pharsight Corporation) in conjunction with Kincalc v2.50 (Bayer AG). For individual subjects, primary outcome measures were maximum observed concentration (C max) and area under the concentration–time curve from time zero to infinity (AUC). […] The metabolite or regorafenib percentages were calculated by AUC(0–144)metabolite or regorafenib divided by AUC(0–144)radioactivity calculated from data obtained by HPLC–LSC analysis. Secondary outcomes were: time to C max (t max); apparent terminal elimination half-life (t ½); apparent volume of distribution during the terminal phase after extravascular administration (Vz/F); and total body clearance of drug calculated after extravascular administration (e.g., apparent oral clearance) (CL/F). AUC was estimated by the sum of partial areas: partial areas were calculated using the linear (if C i ≤ C i+1) or the logarithmic (if C i > C i+1) trapezoidal rules. The quality of the half-life calculation was assessed based on graphs showing the concentration–time profile. For reliable calculation of the half-life, at least three data points (concentration/time values) were used. The extrapolated portion of the AUC from the last measured data point C(t n) to infinity was calculated using the concentration C last,calc, which was calculated from the log-linear regression line used for half-life calculation rather than C(t n). In addition, appropriate pharmacokinetic parameters were derived from the total radioactivity-versus-time data in blood and plasma.
(§1) Due to the limited amount of radiocarbon associated with many of the samples, analyses were conducted using HPLC with fraction collection followed by off-line LSC. Samples were analyzed on a 150 × 3 mm Prodigy® ODS-3 100A, 3 µm column (Phenomenex, Aschaffenburg, Germany) protected by 8 × 3 mm Nucleosil® 100-3 C18 HD guard columns (Macherey–Nagel, Düren, Germany). Metabolites were separated with a gradient of aqueous potassium dihydrogen phosphate (1 g/L, pH 2.0, mobile phase A) versus acetonitrile (mobile phase B) at a flow rate of 0.5 mL/min (gradient: 0% B at 0 min, linear to 50% B at 10 min, linear to 60% B at 25 min, linear to 80% B at 26 min, plateau at 80% B to 30 min). The radiochemical profile of [^14C]regorafenib-derived radioactivity was determined for all urine samples, plasma extracts, and fecal homogenate extracts. Here, HPLC fractionation into 96-well plates was followed by off-line LSC (Wallac 1450 MicroBeta liquid scintillation analyzer) after adding 150 μL of scintillation cocktail to each well (Ultima-Flo™ AP, PerkinElmer; sampling rate: 10 s/well) using the Wallac 1450 Microbeta™ Plusliquid detector. Reconstructed radiochemical profiles were compiled from the resulting data.

[2] = parameters: method as in PMID 24896071; conditions: co-administration of ketoconazole with a single 160 mg dose of regorafenib; cited from earlier work
[3] = parameters: method as in PMID 22421192, PMID 22568966; conditions: cited from earlier work; for Exposure relative to regorafenib after a single dose: plasma; for Secondary maximum of plasma concentration–time profile / Tertiary maximum of plasma concentration–time profile: steady state
human hepatocytes = assay: In vitro metabolism of [14C]regorafenib in human hepatocytes; assay type: in vitro ADME; conditions: [14C]regorafenib 2 µM, 2 h
Experimental: Primary human hepatocytes were obtained from two male donors. […] Regorafenib was added from a 200 µM stock solution in acetonitrile, resulting in 1% final acetonitrile in the incubation. At 0 and 2 h, aliquots of the incubation mixture were removed and the incubation was terminated with acetonitrile to a final content of about 30% (v/v). Samples were analyzed directly or stored at − 20 °C until analysis. Analysis was performed by HPLC–liquid scintillation counting (HPLC–LSC) and HPLC–high-resolution mass spectrometry (HPLC–HRMS/MS).

[4] = parameters: method as in PMID 27734608; conditions: cited from earlier work
[5] = Mass balance: urinary and fecal excretion of radioactivity and metabolite pattern in excreta; assay type: in vivo, human; conditions: individual values of the four subjects
Experimental: Urine: Urine samples were collected at 12-h intervals post-dose on Day 1 and then at 24-h intervals until 288 h post-dose. Urine was stored at 4 °C until it was divided into aliquots for LSC and subsequent metabolite profiling (aliquots were stored at − 20 °C).
Feces: Fecal samples were collected and homogenized in water on a daily basis until 12 days post-dose. Duplicate aliquots of the homogenates were taken for combustion with oxygen (in preparation for LSC), and separate aliquots were used for metabolite profiling.
Liquid samples: Duplicate aliquots of liquid samples were diluted with 1 mL distilled water, if necessary, and mixed with 10 mL Aquasafe 500 Plus scintillation fluid. Levels of radioactivity were measured by LSC (PerkinElmer 2100) with automatic quench correction by an external standard channel ratio method at 13 °C using Ultima Gold™ as the liquid scintillation cocktail. Lower limits of detection (LLOD) were 30 μg-Eq/L for plasma (sample volume 0.5 mL), 50 μg-Eq/L for whole blood (sample volume 0.3 mL), and 0.016 μg-Eq/g for urine (sample weight 1 g).
Fecal samples: Duplicate aliquots of fecal homogenate (about 0.3 g) were weighed into Combustocones® containing Combustopads® for combustion analysis. Samples were combusted using a Packard Tri-Carb 307 Automatic Sample Oxidizer. The resultant ^14CO2 generated was collected by absorption in Carbo-Sorb (8 mL) to which Permafluor E+ (10 mL) was added. Radioactivity was quantified using a liquid scintillation analyzer (PerkinElmer 2100), with automatic quench correction using an external standard method as urine sample analysis. Samples were allowed to stabilize with respect to heat and light, and each sample was analyzed for 5 min. Prior to calculation of individual results, a background count rate was determined and subtracted from each sample’s count rate. LOD was 0.05 μg-Eq/g (sample weight 0.3 g).
as §1

human feces = assay: Incubation with human feces under anaerobic conditions; assay type: in vitro ADME; conditions: for Conversion to the parent drug on incubation in feces: 10 μM, 24 h, 37 °C, anaerobic, reduction of M-2, hydrolysis of M-7; for Stability in feces / toward gut flora: anaerobic conditions, ex vivo
Experimental: Under anaerobic conditions, a suspension of fresh human feces (about 0.5 g) in degassed water (final volume 5 mL) was treated with a solution of [^14C]-labelled metabolite M-2 or metabolite M-7 (1 mg/mL acetonitrile; final concentration: 10 μM). After incubation for 24 h at 37 °C, the incubation mixture was terminated by the addition of acetonitrile (2 mL). After centrifugation (5 min, 3000 rpm), the supernatant (25 μL) was directly subjected to HPLC with the respective off-line radioactivity detection. As negative controls, metabolites M-2 and M-7 were incubated in water for 24 h at 37 °C.

| Percent of total AUC(0–144) of radioactivity in plasma [1] [%] | Mean total exposure, AUC(0–144 h) ([1]; plasma, HPLC–LSC) [mg-Eq·h/L] | Formation in human hepatocytes (human hepatocytes) | Stability in feces / toward gut flora (human feces) | SMILES | Occurrence in plasma [1] | other results |
| --- | --- | --- | --- | --- | --- | --- |
|  |  | identified |  | O=C(Nc1ccc(Cl)c(C(F)(F)F)c1)Nc1ccc(Oc2ccnc(C(=O)O)c2)cc1F [M-6] |  |  |
| 3.1 | 2.43 | identified | not stable | CNC(=O)c1cc(Oc2ccc(NC(=O)N(c3ccc(Cl)c(C(F)(F)F)c3)C3OC(C(=O)O)C(O)C(O)C3O)c(F)c2)ccn1 (stereo not shown) [M-7] |  | Fecal excretion of M-7 in individual subjects [5]: 0.03 % of the dose and 0.3 % of the dose and about 6.0 % of the dose and 13.7 % of the dose and about 14 % of the dose; C max, range between subjects ([1]; plasma, HPLC–LSC): 137–174 μg-Eq/L; Conversion to the parent drug on incubation in feces (human feces): < 10% |
|  |  | observed | not stable | CNC(=O)c1cc(Oc2ccc(NC(=O)N(c3ccc(Cl)c(C(F)(F)F)c3)C3OC(C(=O)O)C(O)C(O)C3O)c(F)c2)cc[n+]1[O-] (stereo not shown) [M-8] | only occasionally found as traces in plasma | Course of degradation on incubation with human feces (human feces): reduction of the N-oxide leading to M-7 proceeded much faster than cleavage of the N-glucuronide yielding M-2 |

More lines, now with the values behind:

| SMILES | Percent of total AUC(0–144) of radioactivity in plasma [1] [%] | Mean total exposure, AUC(0–144 h) ([1]; plasma, HPLC–LSC) [mg-Eq·h/L] | Formation in human hepatocytes (human hepatocytes) | Stability in feces / toward gut flora (human feces) | Occurrence in plasma [1] | other results |
| --- | --- | --- | --- | --- | --- | --- |
| NC(=O)c1cc(Oc2ccc(NC(=O)Nc3ccc(Cl)c(C(F)(F)F)c3)c(F)c2)cc[n+]1[O-] [M-5] | 6.3 | 2.00 | observed |  |  | Decrease in mean AUC [2]: > 90%; Decrease in mean C max [2]: > 90%; Terminal half-life (t 1/2) [3]: about 60 h; Exposure relative to regorafenib after a single dose [3]: signficantly lower exposure than regorafenib; Secondary maximum of plasma concentration–time profile [3]: 6 to 8 h; Tertiary maximum of plasma concentration–time profile [3]: ~24 h; Fraction unbound in plasma [4]: 0.053% |
| O=C(Nc1ccc(Cl)c(C(F)(F)F)c1)Nc1ccc(Oc2ccnc(C(=O)NCO)c2)cc1F [M-3] |  |  | identified |  | only occasionally found as traces in plasma |  |
| O=C(Nc1ccc(Cl)c(C(F)(F)F)c1)Nc1ccc(Oc2cc[n+]([O-])c(C(=O)NCO)c2)cc1F [M-1] |  |  | observed |  | only occasionally found as traces in plasma |  |
| NC(=O)c1cc(Oc2ccc(NC(=O)Nc3ccc(Cl)c(C(F)(F)F)c3)c(F)c2)ccn1 [M-4] |  |  | identified |  | only occasionally found as traces in plasma |  |
| CNC(=O)c1cc(Oc2ccc(NC(=O)Nc3ccc(Cl)c(C(F)(F)F)c3)c(F)c2)cc[n+]1[O-] [M-2] | 28.7 | 20.16 | identified | not stable |  | half-life ([1]; male, human, plasma, oral, 120 mg, read-out: Half-life of M-2, range between subjects): 11 to 33 h; Decrease in mean AUC [2]: > 90%; Decrease in mean C max [2]: > 90%; Exposure relative to regorafenib after a single dose [3]: signficantly lower exposure than regorafenib; Secondary maximum of plasma concentration–time profile [3]: 6 to 8 h; Tertiary maximum of plasma concentration–time profile [3]: ~24 h; Fraction unbound in plasma [4]: 0.188%; Conversion to the parent drug on incubation in feces (human feces): quantitative |
